Several values for one entry are separate records, joined by “and”; a condition that tells them apart may be missing. Equal values may be shown once. Toxic doses and inconclusive results are not listed. No stated cut-off is given here; in the data, active means T/C of 150% or more; inactive means T/C below 125%.
System: L1210 leukemia ip in BDF1 mice, survival T/C
Test: NCI In Vivo Anticancer Drug Screen. Data for tumor model L1210 Leukemia (intraperitoneal) in B6D2F1 (BDF1) mice
Conditions: endpoint: mean survival time, higher = longer survival
Summary of the method: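 Survival endpoint. Drug-treated group vs vehicle group, expressed as T divided by C. Tumor passaged by transplantation.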

[1] = dose: 100.0 mg/kg/injection, schedule: Q04DX002 (ip), vehicle: Klucel (hydroxypropylcellulose) (HPC)
[2] = dose: 200.0 mg/kg/injection, schedule: Q04DX002 (ip), vehicle: Klucel (hydroxypropylcellulose) (HPC)
[3] = dose: 100.0 mg/kg/injection, schedule: Q01DX009 (ip), vehicle: saline with Tween-80
[4] = dose: 200.0 mg/kg/injection, schedule: Q01DX009 (ip), vehicle: saline with Tween-80
[5] = dose: 100.0 mg/kg/injection, schedule: Q01DX009 (ip), vehicle: saline
[6] = dose: 100.0 mg/kg/injection, schedule: Q04DX003 (ip), vehicle: saline
[7] = dose: 200.0 mg/kg/injection, schedule: Q01DX009 (ip), vehicle: saline
[8] = dose: 200.0 mg/kg/injection, schedule: Q04DX003 (ip), vehicle: saline
[9] = dose: 400.0 mg/kg/injection, schedule: Q04DX003 (ip), vehicle: saline
[10] = dose: 50.0 mg/kg/injection, schedule: Q01DX009 (ip), vehicle: Klucel (hydroxypropylcellulose) (HPC)
[11] = dose: 100.0 mg/kg/injection, schedule: Q01DX009 (ip), vehicle: Klucel (hydroxypropylcellulose) (HPC)
[12] = dose: 200.0 mg/kg/injection, schedule: Q01DX009 (ip), vehicle: Klucel (hydroxypropylcellulose) (HPC)
[13] = dose: 400.0 mg/kg/injection, schedule: Q01DX009 (ip), vehicle: Klucel (hydroxypropylcellulose) (HPC)
[14] = dose: 100.0 mg/kg/injection, schedule: Q01DX001 (ip), vehicle: saline
[15] = dose: 200.0 mg/kg/injection, schedule: Q01DX001 (ip), vehicle: saline
[16] = dose: 400.0 mg/kg/injection, schedule: Q01DX001 (ip), vehicle: saline
[17] = dose: 100.0 mg/kg/injection, schedule: Q04DX003 (ip), vehicle: Klucel (hydroxypropylcellulose) (HPC)
[18] = dose: 200.0 mg/kg/injection, schedule: Q04DX003 (ip), vehicle: Klucel (hydroxypropylcellulose) (HPC)
[19] = dose: 100.0 mg/kg/injection, schedule: Q04DX003 (ip), vehicle: saline with Tween-80
[20] = dose: 200.0 mg/kg/injection, schedule: Q04DX003 (ip), vehicle: saline with Tween-80
[21] = dose: 400.0 mg/kg/injection, schedule: Q04DX003 (ip), vehicle: saline with Tween-80
[22] = dose: 75.0 mg/kg/injection, schedule: Q01DX001 (ip), vehicle: saline
[23] = dose: 150.0 mg/kg/injection, schedule: Q01DX001 (ip), vehicle: saline

Measured: T/C

COC1OC2COC(c3ccccc3)OC2C(O)C1OC(N)=S (configuration not stated)
inactive: dose: 25.0 mg/kg/injection, schedule: Q04DX002 (ip), vehicle: Klucel (hydroxypropylcellulose) (HPC) 98 % of control | dose: 50.0 mg/kg/injection, schedule: Q04DX002 (ip), vehicle: Klucel (hydroxypropylcellulose) (HPC) 98 % of control | [1] 88 % of control | [2] 100 % of control | dose: 400.0 mg/kg/injection, schedule: Q04DX002 (ip), vehicle: Klucel (hydroxypropylcellulose) (HPC) 96 % of control

CC1OC(CO)C(O)C(O)C1NC(=O)c1ccccc1 (configuration not stated)
inactive: dose: 50.0 mg/kg/injection, schedule: Q01DX009 (ip), vehicle: saline with Tween-80 98 % of control | [3] 103 % of control | [4] 103 % of control

CNCC(OC)c1ccc(O)c(O)c1 (configuration not stated)
inactive: [5] 105 % of control | [6] 108 % of control | [7] 105 % of control | [8] 106 % of control | [9] 108 % of control

CCN(CCO)CCNc1ccc(CO)c2sc3cc(Cl)ccc3c(=O)c12
inactive: [10] 91 % of control | [11] 96 % of control | [12] 91 % of control

Cc1ccc(NC(=O)OC(C)C)c(C)c1
inactive: [11] 100 % of control | [12] 100 % of control | [13] 96 % of control

O=C(CCCC(=O)N/N=C/c1c[nH]c2ccc(Br)cc12)N/N=C\c1c[nH]c2ccc(Br)cc12
inactive: dose: 50.0 mg/kg/injection, schedule: Q01DX001 (ip), vehicle: saline 105 % of control | [14] 102 % of control | [15] 107 % of control | [16] 96 % of control

Nc1nc2nc[nH]c2c(Cl)c1Br
inactive: [1] 104 % of control | [2] 115 % of control

CCN(CC)C(=O)c1ccc([N+](=O)[O-])cc1
inactive: [10] 97 % of control | [11] 97 % of control | [17] 92 % of control | [12] 95 % of control | [18] 100 % of control

Cc1cc2c(cc1O)C(C)(C)CCC2(C)C
inactive: [19] 92 % of control | [20] 100 % of control | [21] 97 % of control

CCCCCCCCSC(C)(C)C
inactive: [6] 102 % of control | [8] 101 % of control | [9] 93 % of control

CCOC(O)C(Cl)(Cl)Cl (configuration not stated)
inactive: [5] 103 % of control | [6] 100 % of control | [7] 102 % of control | [8] 103 % of control | dose: 400.0 mg/kg/injection, schedule: Q01DX009 (ip), vehicle: saline 92 % of control | [9] 90 % of control

COc1ccc(CC(C)=O)cc1
inactive: dose: 50.0 mg/kg/injection, schedule: Q04DX003 (ip), vehicle: saline 96 % of control | [6] 105 % of control

O=C(O)/C=C/c1ccc(Cl)cc1Cl
inactive: [3] 88 % of control | [4] 87 % of control

O=C(O)c1cc([N+](=O)[O-])ccc1P(=O)(O)O
inactive: [22] 93 % of control | [23] 95 % of control

CC(C)OP(=O)(Cc1ccccc1CBr)OC(C)C
inactive: dose: 100.0 mg/kg/injection, schedule: Q04DX002 (ip), vehicle: saline 109 % of control | dose: 200.0 mg/kg/injection, schedule: Q04DX002 (ip), vehicle: saline 102 % of control | dose: 400.0 mg/kg/injection, schedule: Q04DX002 (ip), vehicle: saline 109 % of control

COC(=O)C1CC(C(N)=O)CC1OC(C)=O (configuration not stated)
inactive: [11] 100 % of control | [12] 93 % of control | [13] 98 % of control

NN(C(=O)c1ccc([N+](=O)[O-])cc1)c1ccccc1
inactive: [22] 95 % of control | [23] 93 % of control | dose: 300.0 mg/kg/injection, schedule: Q01DX001 (ip), vehicle: saline 90 % of control

Oc1ccccc1OCCOCCOc1ccccc1O
inactive: dose: 100.0 mg/kg/injection, schedule: Q04DX002 (ip), vehicle: other 90 % of control

CC(=O)Nc1ccc(Cl)nc1
inactive: [11] 98 % of control | [17] 94 % of control | [12] 92 % of control | [18] 101 % of control | [13] 93 % of control | dose: 400.0 mg/kg/injection, schedule: Q04DX003 (ip), vehicle: Klucel (hydroxypropylcellulose) (HPC) 91 % of control

O=c1cc(-c2cccs2)ss1
inactive: [3] 89 % of control | [19] 102 % of control | [4] 105 % of control | [20] 94 % of control | dose: 400.0 mg/kg/injection, schedule: Q01DX009 (ip), vehicle: saline with Tween-80 86 % of control | [21] 104 % of control

Nc1nc(N)c(-c2ccc(Cl)cc2)c(COc2cccc(NC(=O)c3ccc(NC(=O)CBr)cc3)c2)n1
inactive: [14] 91 % of control | [15] 91 % of control | [16] 104 % of control

CCCCOC(=O)C#CC(=O)OCCCC
inactive: dose: 6.25 mg/kg/injection, schedule: Q01DX009 (ip), vehicle: carboxymethylcellulose (CMC) 94 % of control | dose: 6.25 mg/kg/injection, schedule: Q04DX003 (ip), vehicle: carboxymethylcellulose (CMC) 100 % of control | dose: 12.5 mg/kg/injection, schedule: Q01DX009 (ip), vehicle: carboxymethylcellulose (CMC) 96 % of control | dose: 12.5 mg/kg/injection, schedule: Q04DX002 (ip), vehicle: carboxymethylcellulose (CMC) 95 % of control and 97 % of control | dose: 12.5 mg/kg/injection, schedule: Q04DX003 (ip), vehicle: carboxymethylcellulose (CMC) 97 % of control | dose: 25.0 mg/kg/injection, schedule: Q04DX002 (ip), vehicle: carboxymethylcellulose (CMC) 92 % of control and 95 % of control | dose: 25.0 mg/kg/injection, schedule: Q04DX003 (ip), vehicle: carboxymethylcellulose (CMC) 95 % of control | dose: 50.0 mg/kg/injection, schedule: Q04DX002 (ip), vehicle: carboxymethylcellulose (CMC) 90 % of control

CCOC(=O)c1ccc(NC(=O)Nc2cc(C)ccn2)cc1
inactive: [11] 96 % of control | [12] 107 % of control | [13] 105 % of control

CC/C(=C(\CC)c1ccc(OCCN(CCCl)CCCl)cc1)c1ccc(OCCN(CCCl)CCCl)cc1
inactive: dose: 25.0 mg/kg/injection, schedule: Q04DX002 (ip), vehicle: saline with Tween-80 90 % of control | dose: 50.0 mg/kg/injection, schedule: Q04DX002 (ip), vehicle: saline with Tween-80 94 % of control | dose: 100.0 mg/kg/injection, schedule: Q04DX002 (ip), vehicle: saline with Tween-80 101 % of control

Reference: PubChem BioAssay AID248 (DTP/NCI, 2004)
